# From US9274101B2 (BIOLOG, Inc., priority 2001, dated 2016)
# Like-named read-outs stand apart in the source and are kept apart here. Where a SMILES comes first, the peptide text is derived from it.
# Columns and labels:
# [1] = system: Salmonella typhimurium auxotrophs hisF645 and pyrCΔ73; type: cell-based
# ten strains of E. coli = type: cell-based, Escherichia coli; note: key: +: indicates that the organism tested was capable of utilizing the carbon source listed; −: indicates that the organism tested was not capable of utilizing the carbon source listed; indicates weak positive reactions
# E. coli MG1655 [2] = type: cell-based, Escherichia coli
# HepG2 cells = HepG2 cells cultured on CYTODEX 3 microcarriers, energy sources; type: cell-based, human; settings: Homo sapiens, HepG2, 68 h, read-out: Responses of HepG2 Cells Cultured on Microcarriers After 68 hours in Culture and a 4 hour Color Development Period
# Method: In this Example, methods for testing adherent cells cultured in suspension, for their ability to use multiple carbon sources are described. HepG2 cells were cultured as described in Example 30.
# HepG2 cells were harvested by trypsinization for 3 minutes in 0.25% trypsin-1 mM EDTA and resuspended in an equal volume of culture medium. A viable cell count was obtained by trypan blue exclusion and the appropriate volume of the cell suspension to have 2.7×10^6 cells/0.1 gm CYTODEX 3 (Sigma C3275) microcarrier beads was determined. Microcarrier beads had been previously prepared by 1) rehydration in calcium-magnesium free (CMF) DPBS for 3 hours, 2) autoclaving for 15 minutes, and 3) washing twice in MEM without serum. The cell suspension was added to the beads in a 50 mL tube, and the volume adjusted to 5 mL. Cells were allowed to attach for 1 hour in an atmosphere of 5% CO2, 90-100% humidity, and 37° C., with resuspension every 15 minutes. The microcarriers were transferred to a 100×15 mm Petri dish in a total volume of 20 mL. Cultures were maintained as stationary cultures until used for assay.
# The thixotropic suspending agent, methylcellulose (1500 cps, Sigma M0555), was included in the medium to keep the microcarriers suspended so that they could be accurately pipetted. The methylcellulose was prepared by autoclaving in 20 mL tissue culture water for 30 minutes, then mixing by shaking for 1 hour. The initial concentration of methylcellulose was […]. The methylcellulose was then diluted 1:1 in 2× DME with or without glucose, then supplemented with 10% HI FBS; this yields a methylcellulose concentration of 1.36%. Beads were transferred to a 50 mL tube, allowed to settle and resuspended in DPBS. The washed beads were then resuspended in DME with 10% HI FBS and penicillin-streptomycin but without glucose, L-glutamine, sodium pyruvate, or phenol red. An equal volume of 1.36% methylcellulose was added and mixed by pipetting.
# For the assay, 70 μL of DME with 10% HI FBS and penicillin-streptomycin but without glucose, L-glutamine, sodium pyruvate, or phenol red were added to each well, followed by 30 μL of the appropriate dilution of each test energy source. Stocks of 133 mM of each test chemical were prepared in tissue culture grade water, sterile filtered, and dilutions were prepared in a master plate so that, upon dilution into a regular 96-well MICROPLATE a total well volume of 200 μL, the final concentrations would be 0.033 to 20 mM. Negative control wells received 30 μL of tissue culture grade water. One hundred μL of beads were pipetted into each well. For each plate containing energy sources and cells, a second, control plate containing only energy sources was prepared. Plates were incubated at 5% CO2, 90-100% humidity, and 37° C. for 68 hours prior to addition of the MTS/MPMS colorometric reagent (10 μL/well). The color formed in each well 4-8 hours after addition of the colorimetric reagent, was measured with a plate reader at 490 nm with a reference wavelength of 650 nm. OD values from the control plate were subtracted from the OD values obtained with cells prior to normalizing the data to % negative control (cells without added energy source).
# E. coli MG1655 [3] = type: cell-based, Escherichia coli; remark: listed apart in the source
# HL-60 cells = assay: HL-60 responses in PM1a, PM6, PM7 and PM8 plates; type: cell-based, human; settings: PM6, PM7, PM8; positive = greater than 130% of the negative control
# Method: In this Example, methods for testing unattached cells for their ability to use various carbon sources including di and tri-peptides are described.
# After washing, HL-60 cells were resuspended in DME-R. An aliquot of the cell suspension was counted by trypan blue exclusion and the cell density was adjusted to 1×10^6/mL. Fifty μL of DME-R were added to each well of the appropriate number of half area, 96-well plates. The cells were plated at a volume of 50 μL/well, giving a final cell density of 5×10^4/well. PM1a, MP6, PM7, and PM8 MICROPLATE testing plates were inoculated (these MICROPLATE testing plates are available from Biolog under license). For each plate containing chemicals and cells, a second, control plate containing only chemicals was prepared. All wells contained a total volume of 100 μL. Plates were incubated at 5% CO2, 90-100% humidity, and 37° C. for 1 hour prior to addition of the MTS/MPMS colorometric reagent (5 μL/well). The color formed in each well after an additional 24 hour incubation period, was measured on a plate reader at 490 nm with a reference wavelength of 650 nm. OD values from the control plate were subtracted from the OD values obtained with cells prior to normalizing the data to % negative control (cells without added energy source).
# E. coli (MG1655) = assay: Sensitivity in ES1, ES2, ES3 MICROPLATE panels in the presence of vancomycin or sulfamethoxazole (synergy/antagonism); type: cell-based, Escherichia coli
# [4] = in the presence of 235 μg/ml sulfamethoxazole
compound,measurement,setting,value
Nc1ccn([C@H]2C[C@H](O)[C@@H](CO)O2)c(=O)n1 [2-deoxycytidine],growth stimulation (well color),[1],turned purple
O=c1ccn([C@H]2C[C@H](O)[C@@H](CO)O2)c(=O)[nH]1 [2-deoxyuridine],growth stimulation (well color),[1],turned purple
Nc1ncnc2c1ncn2[C@H]1C[C@H](O)[C@@H](CO)O1 [2′-deoxy-adenosine],growth stimulation (well color),[1],turned weakly purple
same,carbon source utilization,ten strains of E. coli,+
Nc1nc2c(ncn2[C@H]2C[C@H](O)[C@@H](CO)O2)c(=O)[nH]1 [2′deoxyguanosine],growth stimulation (well color),[1],turned weakly purple
O=c1ccn([C@@H]2O[C@H](CO)[C@@H](O)[C@H]2O)c(=O)[nH]1 [Uridine],growth stimulation (well color),[1],turned purple
same,carbon source utilization,ten strains of E. coli,+
same,"suitability as nitrogen source (growth, purple color)",E. coli MG1655 [2],not suitable
same,activity at 30 µM,HepG2 cells; Conc. 0.03 mM,102%
same,activity at 100 µM,HepG2 cells; Conc. 0.10 mM,109%
same,activity at 330 µM,HepG2 cells; Conc. 0.33 mM,99%
same,activity at 1000 µM,HepG2 cells; Conc. 1.00 mM,109%
same,activity at 3300 µM,HepG2 cells; Conc. 3.3 mM,106%
same,activity at 10000 µM,HepG2 cells; Conc. 10 mM,94.8%
same,activity at 15000 µM,HepG2 cells; Conc. 15 mM,74.1%
same,activity at 20000 µM,HepG2 cells; Conc. 20 mM,31.9%
Nc1ncnc2c1ncn2[C@@H]1O[C@H](CO)[C@@H](OP(=O)(O)O)[C@H]1O [adenosine 3-monophosphate],growth stimulation (well color),[1],turned weakly purple
same,"suitability as phosphorus source (growth, purple color)",E. coli MG1655 [3],positive
Nc1ncnc2c1ncn2[C@@H]1O[C@H](COP(=O)(O)O)[C@@H](O)[C@H]1O [adenosine 5′-monophosphate],growth stimulation (well color),[1],turned weakly purple
same,"suitability as phosphorus source (growth, purple color)",E. coli MG1655 [3],not suitable
Nc1ncnc2c1ncn2[C@@H]1O[C@H](CO)[C@@H](O)[C@H]1OP(=O)(O)O [adenosine-2′-monophosphate],growth stimulation (well color),[1],turned weakly purple
same,"suitability as phosphorus source (growth, purple color)",E. coli MG1655 [3],positive
C[C@H](N)C(=O)N[C@@H](CCC(N)=O)C(=O)O [ala-gln] (H-Ala-Gln-OH),"suitability as nitrogen source (growth, purple color)",E. coli MG1655 [2],positive
same,response of HL-60 cells to peptides,HL-60 cells,positive response
O=[N+]([O-])c1ncc[nH]1 [azomycin],change of sensitivity to the panel compound,E. coli (MG1655),increased sensitivity
N[C@@H](C(=O)N[C@@H]1C(=O)N2C(C(=O)O)=C(Cl)CS[C@H]12)c1ccccc1 [cefaclor],change of sensitivity to the panel compound,E. coli (MG1655); [4],increased sensitivity
Cc1nnc(SCC2=C(C(=O)O)N3C(=O)[C@@H](NC(=O)Cn4cnnn4)[C@H]3SC2)s1 [cefazolin],change of sensitivity to the panel compound,E. coli (MG1655); in the presence of 10 μg/ml vancomycin,increased sensitivity
same,change of sensitivity to the panel compound,E. coli (MG1655); [4],increased sensitivity
N[C@@H](CS)C(=O)NCC(=O)O [cys-gly],"suitability as sulfur source (growth, purple color)",E. coli MG1655 [3],positive
same,response of HL-60 cells to peptides,HL-60 cells,positive response
Nc1ccn([C@@H]2O[C@H](CO)[C@@H](O)[C@H]2OP(=O)(O)O)c(=O)n1 [cytidine 2′-monophosphate],growth stimulation (well color),[1],turned purple
same,"suitability as phosphorus source (growth, purple color)",E. coli MG1655 [3],not suitable
Nc1ccn([C@@H]2O[C@H](CO)[C@@H](OP(=O)(O)O)[C@H]2O)c(=O)n1 [cytidine 3′-monophosphate],growth stimulation (well color),[1],turned purple
same,"suitability as phosphorus source (growth, purple color)",E. coli MG1655 [3],positive
Nc1ccn([C@@H]2O[C@H](COP(=O)(O)O)[C@@H](O)[C@H]2O)c(=O)n1 [cytidine 5′-monophosphate],growth stimulation (well color),[1],turned purple
same,"suitability as phosphorus source (growth, purple color)",E. coli MG1655 [3],positive
Nc1ccn([C@@H]2O[C@H](CO)[C@@H](O)[C@H]2O)c(=O)n1 [cytidine],growth stimulation (well color),[1],turned purple
Nc1cc[nH]c(=O)n1 [cytosine],growth stimulation (well color),[1],turned purple
same,"suitability as nitrogen source (growth, purple color)",E. coli MG1655 [2],not suitable
Nc1nc2nc[nH]c2c(=O)[nH]1 [guanine],growth stimulation (well color),[1],turned weakly purple
Nc1nc2c(ncn2[C@@H]2O[C@H](CO)[C@@H](O)[C@H]2OP(=O)(O)O)c(=O)[nH]1 [guanosine 2′-monophosphate],growth stimulation (well color),[1],turned weakly purple
same,"suitability as phosphorus source (growth, purple color)",E. coli MG1655 [3],positive
Nc1nc2c(ncn2[C@@H]2O[C@H](COP(=O)(O)O)[C@@H](O)[C@H]2O)c(=O)[nH]1 [guanosine 5′-monophosphate],growth stimulation (well color),[1],turned weakly purple
same,"suitability as phosphorus source (growth, purple color)",E. coli MG1655 [3],positive
C[C@@H](O)[C@H](N)C(=O)N[C@@H](CO)C(=O)O [thr-ser] (H-Thr-Ser-OH),response of HL-60 cells to peptides,HL-60 cells,positive response
C[C@H](NC(=O)[C@@H](N)Cc1ccc(O)cc1)C(=O)O [tyr-ala],response of HL-60 cells to peptides,HL-60 cells,positive response
N[C@@H](Cc1ccc(O)cc1)C(=O)N[C@@H](Cc1ccccc1)C(=O)O [tyr-phe] (H-Tyr-Phe-OH),response of HL-60 cells to peptides,HL-60 cells,positive response
CC(C)[C@H](NC(=O)[C@@H](N)Cc1ccc(O)cc1)C(=O)O [tyr-val] (H-Tyr-Val-OH),response of HL-60 cells to peptides,HL-60 cells,positive response
O=c1cc[nH]c(=O)[nH]1 [uracil],growth stimulation (well color),[1],turned purple
same,"suitability as nitrogen source (growth, purple color)",E. coli MG1655 [2],not suitable
O=c1ccn([C@@H]2O[C@H](CO)[C@@H](OP(=O)(O)O)[C@H]2O)c(=O)[nH]1 [uridine 3′-monophosphate],growth stimulation (well color),[1],turned purple
same,"suitability as phosphorus source (growth, purple color)",E. coli MG1655 [3],positive
O=c1ccn([C@@H]2O[C@H](COP(=O)(O)O)[C@@H](O)[C@H]2O)c(=O)[nH]1 [uridine 5′-monophosphate],growth stimulation (well color),[1],turned purple
same,"suitability as phosphorus source (growth, purple color)",E. coli MG1655 [3],positive
CC(C)[C@H](N)C(=O)N[C@@H](CCC(N)=O)C(=O)O [val-gln] (H-Val-Gln-OH),response of HL-60 cells to peptides,HL-60 cells,positive response
CC(C)[C@H](N)C(=O)N[C@@H](Cc1ccc(O)cc1)C(=O)N[C@H](C(=O)O)C(C)C [val-tyr-val] (H-Val-Tyr-Val-OH),response of HL-60 cells to peptides,HL-60 cells,positive response
